Laboratory results published in ChEMBL document CHEMBL4627316, “Design and synthesis of potent PAR-1 antagonists based on vorapaxar” (Bioorg Med Chem Lett, 2020).

What was measured:
[1] = target: T1, Proteinase-activated receptor 1 (Homo sapiens) (UniProt P25116); test: Antagonist activity at human PAR1 expressed in KNRK cells assessed as inhibition of agonist-induced intracellular calcium mobilization at 10^-7 M by fluorimetric assay relative to control; type: functional, cell-based
T1 sequence (whole entry): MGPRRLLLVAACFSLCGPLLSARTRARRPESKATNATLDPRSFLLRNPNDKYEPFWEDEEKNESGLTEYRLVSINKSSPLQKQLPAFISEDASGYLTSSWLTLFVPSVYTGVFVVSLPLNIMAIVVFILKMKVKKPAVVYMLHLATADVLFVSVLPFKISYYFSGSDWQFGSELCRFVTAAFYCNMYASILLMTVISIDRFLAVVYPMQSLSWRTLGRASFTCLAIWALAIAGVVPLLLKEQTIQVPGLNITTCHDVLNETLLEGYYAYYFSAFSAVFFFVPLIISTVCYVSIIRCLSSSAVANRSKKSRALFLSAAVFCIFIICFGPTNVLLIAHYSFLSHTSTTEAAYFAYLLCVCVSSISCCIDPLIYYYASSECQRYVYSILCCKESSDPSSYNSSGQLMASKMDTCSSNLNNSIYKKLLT

[2] = target: T1, Proteinase-activated receptor 1 (Homo sapiens); test: Antagonist activity at human PAR1 expressed in KNRK cells assessed as inhibition of agonist-induced intracellular calcium mobilization at 10^-6 M by fluorimetric assay relative to control; type: functional, cell-based
[3] = target: T1, Proteinase-activated receptor 1 (Homo sapiens); test: Antagonist activity at human PAR1 expressed in KNRK cells assessed as inhibition of agonist-induced intracellular calcium mobilization at 10^-5 M by fluorimetric assay relative to control; type: functional, cell-based
[4] = target: T2, Proteinase-activated receptor 1 (Homo sapiens, UniProt P25116); test: Antagonist activity at human PAR1 expressed in KNRK cells assessed as inhibition of agonist-induced intracellular calcium mobilization by fluorimetric assay; type: functional, cell-based
T2 sequence (P25116 whole entry): T1 sequence (whole entry)

[5] = Half life in Sprague-Dawley rat at 5 mg/kg, po or 1 mg/kg, iv; type: ADME, organism-based; conditions: in vivo
[6] = AUC (0 to infinity) in Sprague-Dawley rat at 5 mg/kg, po or 1 mg/kg, iv; type: ADME, organism-based; conditions: in vivo
[7] = Cmax in Sprague-Dawley rat at 5 mg/kg, po or 1 mg/kg, iv; type: ADME, organism-based; conditions: in vivo
[8] = Oral bioavailability in Sprague-Dawley rat at 5 mg/kg; type: ADME, organism-based; conditions: in vivo
[9] = Ratio of drug concentration in brain to plasma in Sprague-Dawley rat at 5 mg/kg, po measured at 8 hrs; type: ADME, organism-based; conditions: read-out: BPR

SMILES | inhibition [1] [%] | inhibition [2] [%] | inhibition [3] [%] | IC50 [4] [µM] | half-life [5] [h] | AUC(0-inf) [6] [ng·h/mL] | Cmax [7] [ng/mL] | bioavailability [8] [%] | Kp at 8 h [9]
CCOC(=O)N[C@@H]1CC[C@@H]2[C@@H](C1)C[C@H]1C(=O)O[C@H](C)[C@H]1[C@H]2/C=C/c1ccc(-c2cccc(F)c2)cc1 | -7 | 26 | 42 |  |  |  |  |  | 
CCOC(=O)CN[C@@]12C[C@@H]3CCCC[C@H]3[C@H](/C=C/c3ccc(-c4cccc(F)c4)cn3)[C@@H]1[C@@H](C)OC2=O | -5 | 81 | 101 |  |  |  |  |  | 
C[C@H]1OC(=O)[C@]2(NCC(=O)O)C[C@@H]3CCCC[C@H]3[C@H](/C=C/c3ccc(-c4cccc(F)c4)cn3)[C@H]12 | 23 | 61 | 100 | 1.1 | 2.9 | 5000 | 1140 | 70 | 0.68
C[C@H]1OC(=O)[C@]2(NCC#N)C[C@@H]3CCCC[C@H]3[C@H](/C=C/c3ccc(-c4cccc(F)c4)cn3)[C@H]12 | -4 | 92 | 99 | 0.76 | 8.5 | 5140 | 2310 | 34 | 0.35
CCOC(=O)N[C@@H]1CC[C@@H]2[C@@H](C1)C[C@H]1C(=O)O[C@H](C)[C@H]1[C@H]2/C=C/c1ccc(-c2ccccn2)cc1 | 5 | 40 | 66 | 0.55 | 5 | 7100 | 710 | 44 | 0.54
C[C@H]1OC(=O)[C@@H]2C[C@@H]3C[C@H](NCC(=O)O)CC[C@H]3[C@H](/C=C/c3ccc(-c4cccc(F)c4)cn3)[C@H]12 | 13 | 34 | 48 |  |  |  |  |  | 

Further lines, results first:

inhibition [1] [%] | inhibition [2] [%] | inhibition [3] [%] | IC50 [4] [µM] | half-life [5] [h] | AUC(0-inf) [6] [ng·h/mL] | Cmax [7] [ng/mL] | bioavailability [8] [%] | Kp at 8 h [9] | SMILES
25 | 99 | 101 | 0.25 | 4 | 3500 | 440 | 94 | 1.08 | CCOC(=O)N[C@@H]1CC[C@@H]2[C@@H](C1)C[C@H]1C(=O)O[C@H](C)[C@H]1[C@H]2/C=C/c1ccc(-c2cccc(F)c2)cn1 [VORAPAXAR]
44 | 71 | 99 | 0.18 | 6.4 | 6390 | 580 | 98 | 0.38 | C[C@H]1OC(=O)[C@@H]2C[C@@H]3C[C@H](NCC#N)CC[C@H]3[C@H](/C=C/c3ccc(-c4cccc(F)c4)cn3)[C@H]12
3 | 28 | 81 |  |  |  |  |  |  | C[C@H]1OC(=O)[C@@H]2C[C@@H]3C[C@H](Nc4nc5ccccc5o4)CC[C@H]3[C@H](/C=C/c3ccc(-c4cccc(F)c4)cn3)[C@H]12
20 | 98 | 101 | 0.61 | 6.7 | 860 | 110 | 23 | 1.13 | Cc1ccnc(N[C@@H]2CC[C@@H]3[C@@H](C2)C[C@H]2C(=O)O[C@H](C)[C@H]2[C@H]3/C=C/c2ccc(-c3cccc(F)c3)cn2)n1
